Data from patent US20190125753A1, “COMPOUNDS AND METHODS FOR INCREASING HEMATOPOIESIS” (University of Southern California, priority 2016, published 2019).

How the values were obtained:
[1] = test system: bone marrow cells; test: Bone marrow CFC recovery after 7Gy radiation; format: in vivo, mouse
Experimental: According to particular aspects of the present invention, if YH250 can stimulate 7Gy irradiated animal HSPC proliferation/expansion, the compound may accelerate the recovery of the hematopoiesis from radiation damage. We first tested if YH250 treatment accelerates bone marrow cell CFC activities, the more differentiated cells. After 7Gy radiation and either DMSO or YH250 administration 24 hours post radiation, bone marrow cells were recovered at different time points (day 6, 11, 13, 15 post treatment) and CFC assays were performed (FIG. 19A). […] Consistent with increased colony numbers, there are more cells from plates of YH250 treated cells.

[2] = test system: Wnt/β-catenin pathway; test: SuperTOPFLASH (STF1.1 Hek-293) Wnt/β-catenin-driven luciferase reporter; format: cell-based; details: Homo sapiens, HEK293; STF1.1 Hek-293; 1 hour pre-incubation, 10 mM LiCl 24 hours
Experimental: A. Wnt/β-Catenin Activity: The Initial SuperTOPFLASH Screen.
Hek293 cells were stably transfected with plasmid that contains multiple TCF/LEF fragments in front of Luciferase gene. Wnt/β-catenin activity was determined from luciferase expression levels. […] Briefly, stably transfected Hek-293, STFI.1 (Wnt/β-catenin-driven luciferase) and Survivin-Hek-293 (1 Kb Human survivin promoter-driven luciferase) cells were maintained in DMEM, 10% FBS, Pen/Strep with 400 μg/mL G418 or 2 μg/mL puromycin, respectively. To check the activity of ICG-001, YH249, and YH250, the cells were split into white-opaque 96-well plates at 10,000 cells per well and allowed to attach overnight. For SuperTOPLASH, the inhibitors were added to the cells and pre-incubated for 1 hour prior to stimulation with 10 mM Li Cl for 24 hours. Luciferase activity was read using BrightGlo (Promnega) luciferase substrate. For survivin/luc, the inhibitors were added to the cells and incubated for 24 hours prior to readout. To calculate IC5o values, the resulting curve was fitted to a four-parameter logistic model (4PL) using GraphPad Prism 5 software.
An endogenous human survivin 1 kb promoter was inserted before a luciferase gene. […] R1 and R2 were diversified in this study. Percent inhibition of luciferase activity was calculated according to the following equations; % inhibition of STF 1.1 reporter activity=(I−RLU(10 mM LiCl) treated/RLU(10 omM LiCl) vehicle×control)100, % inhibition of Survivin reporter activity=(1−RLUtreated/RLU vehicle control)×100. Error bars indicate the mean±SE of 3 separate experiments. Selectivity (FIG. 2H) was calculated by IC50 value for Survivin-Hek-293/IC50 value for STF 1.1.

[3] = test system: R1 mESCs; test: Maintenance of mouse ES cell pluripotency, feeder free, 5 days; format: cell-based
Experimental: (§1) We also determined that IQ-1 indirectly, via binding to the PR72/130 subunit of PP2A, inhibited the p300/β-catenin interaction (Id). Therefore, we anticipated that YH249/250 should also maintain mESC pluripotency in a Wnt dependent manner. To test his, R1 mESCs were cultured under feeder free conditions in the presence or absence of YH249/250 for 5 days. […] Pluripotency markers, Oct4, Nanog, Sox2, SSEA-1 and ALP, were all expressed in the cells treated with Wnt3a and YH250 (FIG. 28b). Moreover, Wnt3a could be replaced with the selective GSK-3 inhibitor CHIR99021, which activates the Wnt signaling pathway (FIG. 28a, lower panel). […] In the event, similarly to ID-8, the combination of Wnt3a and YH249/250 provided morphologically undifferentiated colonies of H9 human embryonic stem cells (hESCs) without FGF and TGF (FIG. 28c). hPSC markers were detected by ALP staining and immunofluorescence (FIG. 28d). In addition to H9 cells, two other hESC lines and a human induced pluripotent stem (iPS) cell line could be also maintained undifferentiated morphology utilizing the same conditions (not shown).
Specifically, FIG. 28A-28D, show maintenance of ESC's pluripotency by YH249 and YH250. […] 28A, Typical colony morphologies of RI mouse ES cells cultured 5 days in [upper panel] 3 μM CHIR99021 and 1 μM PD0325901 (2i) medium, basal medium (2i medium without CHIR99021 and PD0325901), basal medium supplemented with 50 ng/ml Wnt3a alone, [middle panel] combination of 50 ng/ml Wnt3a and 2 μM IQ-1, 500 nM YH249 or 200 nM YH250, [lower panel] 3 μM of CHIR99021 alone, and combination of 3 μM CHIR99021 and 500 nM YH249 or 200 nM YH250. […] The blue signal (Wnt3a panels) represents DAPI nuclear staining. Bars indicate […]. […] The blue signal (Wnt3a panels) represents DAP1 nuclear staining. Scale bars indicate 100 am.

[4] = test system: Axin2 and survivin (Birc5) gene expression; test: qPCR gene expression in bone marrow Sca-1posit cells of treated mice; format: in vivo, mouse; details: 2 mg/kg overnight, Sca-1+ population
Experimental: Axin2 is a classical Wnt/catenin target genes and plays important regulatory roles in Wnt signaling. The inhibitor of apoptosis (IAP) family member survivin (Birc5) is another Wnt/catenin target gene. […] To study YH250 effects in bone marrow stem cell population gene expression, female C57/Black mice were treated with DMSO or YH250 (2 mg/kg) overnight and bone marrow Sca-1posit cells were isolated. Then, total RNA were extracted for cDNA synthesis and qPCR assay (FIG. 5A). As shown in FIGS. 5B-5C, both Axin2 and survivin gene expression were up regulated by YH250 in the Sca-1^+ population of the treated animals.

[5] = test system: H9 human embryonic stem cells; test: Maintenance of human ES cell pluripotency, 5 days; format: cell-based; details: 25 ng/ml Wnt3a; 500 nM YH249 or 200 nM YH250, 5 days, without FGF and TGF
Experimental: as §1
Specifically, FIG. 28A-28D, show maintenance of ESC's pluripotency by YH249 and YH250. […] 28A, Typical colony morphologies of RI mouse ES cells cultured 5 days in [upper panel] […]

[6] = test system: 5-FU treated mice; test: Recovery from repeated 5-FU administration; format: in vivo, mouse
Experimental: To test if p300/-catenin antagonists can also promote multi-dosing chemotherapeutic drug induced bone marrow inhibition, 4 rounds of 5-FU (two doses in each round) administration were given to CD45.2 female mice. 150 mg/kg of 5-FU was given to mice for the first three rounds and then 200 mg/kg for the last round (4th round). The second dose of 5-FU was 6 days apart from the first dose of 5-FU in each round. Either DMSO or YH250 (2 mg/kg) were given to animals 24 hours after the first dose of 5-FU in each round of 5-FU administration (FIG. 25A). Animal body weight, survival rate and blood count changes were monitored. […] After each round of 5-FU administration, animals were allowed to recover to normal blood count before next round of 5-FU administration. FIG. 25E depicts the blood count at nadir points after each round of 5-FU administration.

[7] = especially last three rounds of 5-FU

Question: `COc1cccc(CNC(=O)N2C3CN(Cc4cc(Cl)cc(Cl)c4N(C)C)C(=O)[C@H](Cc4ccc(O)cc4)N3C(=O)CN2C)c1OC` (stereo partly shown) [YH250] was tested. Which “cells from CFC plates” value ([1]; 7Gy radiation) did it give?
Answer: more cells

Question: And the “colonies in CFC assay vs DMSO treated mice” value ([1]; 14th day post 7Gy radiation)?
Answer: significantly more colonies

Question: And the IC50 [2]?
Answer: < 0.1 µM

Question: And the “pluripotency markers Oct4, Nanog, Sox2, SSEA-1 and ALP” value ([3]; Wnt3a and 200 nM YH250)?
Answer: all expressed

Question: What about the mESC pluripotency ([3]; with 50 ng/ml Wnt3a or 3 μM CHIR99021, 500 nM YH249 or 200 nM YH250, 5 days) of the same compound?
Answer: maintain pluripotency

Question: What about the Axin2 gene expression [4] of the same compound?
Answer: up regulated

Question: What about the survivin gene expression [4] of the same compound?
Answer: up regulated

Question: What about the hESC pluripotency [5] of the same compound?
Answer: maintain pluripotency

Question: What about the “RBC at nadir points” value ([6]; 4 rounds of 5-FU) of the same compound?
Answer: no significant effect on RBC

Question: What about the survival ([6]; 5-FU 200 mg/kg (4th round), 60% died in DMSO group, p=0.04) of the same compound?
Answer: all animals survived

Question: And the “WBC at nadir point” value [6, 7]?
Answer: significantly higher

Question: And the “platelet at nadir point” value [6, 7]?
Answer: significantly higher

Question: And the body weight ([6]; from second round of 5-FU administration, 2 mg/kg each round)?
Answer: less weight drop
